Experimental findings from ChEMBL document CHEMBL1135715, “DNA cleavage potency, cytotoxicity, and mechanism of action of a novel class of enediyne prodrugs” (J Med Chem, 2002) are described below.

The IC50 is the concentration at which inhibition is half-maximal. Lower therefore signals inhibition by little substance.

The subject of this test is P388. Put plainly: Cytotoxicity, 50% inhibitory concentration against P388 Mouse T cell leukemia cell line by MTT assay. The format is functional, cell-based. For orientation: Tetrazolium assays rely on reduction of a dye to a coloured formazan, in cell work by metabolically active cells.

As for `COCC(=O)OC(/C1=C/C#CCCCCC#C1)c1ccc2ccccc2c1` (stereo not given), the half-inhibitory concentration (IC50) worked out at 9.5 µM.
As for `CC(=O)OC1C#CCCCCC#C/C1=C\c1ccc2ccccc2c1` (stereo not given), the half-maximal inhibitory concentration (IC50) amounted to 2.8 µM.
Compound `COCC(=O)OC1C#CCCCCC#C/C1=C\c1cccc2ccccc12` (stereo not given) had an IC50 of 12 µM.
As for `CC(=O)OC1C#CCCCCC#C/C1=C\c1ccccc1` (stereo not given), the figure is 48 µM; as for `COc1ccc(C(O)/C2=C/C#CCCCCC#C2)cc1` (stereo not given), 13 µM.
As for `OC1C#CCCCCC#C/C1=C\c1cccc2ccccc12` (stereo not given), the figure is 41 µM; as for `COc1ccc(/C=C2\C#CCCCCC#CC2O)cc1` (stereo not given), 5.8 µM; as for `OC1C#CCCCCC#C/C1=C\c1ccccc1` (stereo not given), 25 µM.
As for `COc1ccc(/C=C2\C#CCCCCC#CC2OC(C)=O)cc1` (stereo not given), the figure is 15 µM; as for `COCC(=O)OC(/C1=C/C#CCCCCC#C1)c1cccc2ccccc12` (stereo not given), 3.8 µM.
With `COCC(=O)OC1C#CCCCCC#C/C1=C\c1ccc2ccccc2c1` (stereo not given), the midpoint of inhibition, the IC50, lay at 28 µM.
As for `COCC(=O)OC1C#CCCCCC#C/C1=C\c1ccccc1` (stereo not given), the figure is 23 µM; as for `OC1C#CCCCCC#C/C1=C\c1ccc2ccccc2c1` (stereo not given), 3.6 µM.
Under `COCC(=O)OC(/C1=C/C#CCCCCC#C1)c1ccccc1` (stereo not given) stands 7.7 µM; under `CC(=O)OC1C#CCCCCC#C/C1=C\c1cccc2ccccc12` (stereo not given), 2.4 µM.
